The values that follow come from US12653900B2, “Antibody drug conjugates comprising ecteinascidin derivatives” (PHARMA MAR, S.A., priority 2018, dated 2026).

The IC50 is the concentration at which inhibition is half-maximal.

One test concerns SK-BR-3 (HER2+). The test can be described thus: In vitro cytotoxicity of ADCs and related reagents, SRB assay. Conditions: Homo sapiens; SK-BR-3, HER2 positive, 72 hours; read-out: IC50. The test is classed as cell-based. Here is the method:
(§1) Sulforhodamine B colorimetric assay for cytotoxicity screening. […] Briefly, cells were seeded in 96-well microtiter plates and allowed to stand for 24 hours in drug-free medium before treatment with vehicle alone or with the tested substances for 72 hours.
(§2) Cell survival was expressed as percentage of control, untreated cell survival.
On the technique in general: In SRB staining, fixed cells bind dye roughly in proportion to their protein.

For the next test, the system named is MDA-MB-231 (HER2−). Described as above. It counts as cell-based. Conditions: Homo sapiens; MDA-MB-231, HER2 negative, 72 hours; read-out: IC50. Here is the method: as §1, §2
Another test deals with HCC-1954 (HER2+). Described as above. The test is classed as cell-based. Conditions: Homo sapiens, HCC1954; HCC-1954, HER2 positive, 72 hours; read-out: IC50. Here is the method: as §1, §2
The next test has as its system RPMI 8226 (CD13−). As to the kind of experiment: In vitro cytotoxicity of ADCs and related reagents, MTT assay. It counts as cell-based, human. Conditions: Homo sapiens, RPMI-8226; RPMI8226 cells; geometric mean of the IC50 values of three experiments; read-out: IC50 RPMI8226 (CD13 negative). Here is the method: (§3) Briefly, cells were seeded in 96-well trays and treated as above and after 72 hours of exposure to the tested substances cellular viability was estimated from conversion of MTT (Sigma, St Louis, MO, USA) to its coloured reaction product, MTT-formazan, which was dissolved in DMSO to measure its absorbance at 540 nm in a microplate spectrophotometer.
as §2
A general note: Tetrazolium assays rely on reduction of a dye to a coloured formazan, in cell work by metabolically active cells.

The subject of the next test is Raji (CD13−). The description is as above. The test is classed as cell-based, human. Conditions: Homo sapiens; Raji cells; geometric mean of the IC50 values of three experiments; read-out: IC50 Raji (CD13 negative). The protocol: as §3, §2
The subject of a further test is NB 4 (CD13+). The test is described as above. It counts as cell-based, human. Conditions: Homo sapiens; NB-4 cells; geometric mean of the IC50 values of three experiments; read-out: IC50 NB-4 (CD13 positive). The protocol: as §3, §2
Another test relates to HT-1080 (CD13+). Described as above. It counts as cell-based. Conditions: Homo sapiens, read-out: IC50 HT-1080 (CD13 positive); HT-1080 cells; geometric mean of the IC50 values of three experiments.
Description: as §2

In test [1] the test system is HT-1080, NB 4, Raji and RPMI 8226 cells. As to the kind of experiment: In vitro cytotoxicity across the CD13 cell panel and CD13 selectivity. It counts as cell-based, human. Conditions: Homo sapiens, CD13 positive and negative cell lines.
Description: as §2

The subject of test [2] is SK-BR-3, HCC-1954, MDA-MB-231 and MCF-7 cells. As to the kind of experiment: In vitro cytotoxicity across the HER2 breast cancer cell panel and HER2 selectivity. It counts as cell-based. Conditions: Homo sapiens. Here is the method: For SK-BR-3, HCC-1954, MDA-MB-231 and MCF-7 cells, a colorimetric assay using Sulforhodamine B (SRB) was adapted for quantitative measurement of cell growth and cytotoxicity, as described in V. Vichai and K. Kirtikara. Sulforhodamine B colorimetric assay for cytotoxicity screening. Nature Protocols, 2006, 1, 1112-1116. Briefly, cells were seeded in 96-well microtiter plates and allowed to stand for 24 hours in drug-free medium before treatment with vehicle alone or with the tested substances for 72 hours.
as §2
Standard dose-response (DR) curves for 72 hours incubation with the tested substances were performed.

Setting [3] is: read-out: IC50 values, range over the four cell lines.
Where [4] appears, read: read-out: geometric mean IC50 value across the whole cell panel.

Values joined by “and” are separate entries in the source; they are usually repeats but may differ in a detail not shown here. Identical values can stand only once. Like-named read-outs stand apart in the source and are kept apart here.

As for `COc1c(C)cc2c(c1O)[C@@H]1[C@@H]3[C@@H]4SC[C@]5(N[C@@H](CN)Cc6c5[nH]c5ccccc65)C(=O)OC[C@@H](c5c6c(c(C)c(OC(C)=O)c54)OCO6)N3[C@@H](O)[C@H](C2)N1C` [12-R], the IC50 in the test with SK-BR-3 (HER2+) was 0.000441 µg/mL and 0.562 nM; in the test on MDA-MB-231 (HER2−) it was 0.000493 µg/mL and 0.629 nM; in the test with HCC-1954 (HER2+) it was 0.00127 µg/mL and 1.62 nM; in the test with RPMI 8226 (CD13−), 0.00083 µg/mL and 1.06 nM; with Raji (CD13−) it was 0.00047 µg/mL and 0.6 nM; with NB 4 (CD13+) it was 0.00033 µg/mL and 0.421 nM. Also, the IC50 is 0.0011 µg/mL and 1.4 nM in the test with HT-1080 (CD13+); 0.0003 µg/mL to 0.0011 µg/mL and 0.421 nM to 1.4 nM in test [1] (setting [3]); 0.0006 µg/mL and 0.78 nM in test [1] (setting [4]); 0.0004 µg/mL to 0.0013 µg/mL and 0.562 nM to 1.62 nM in test [2] (setting [3]); 0.00071 µg/mL and 0.906 nM in [2] (setting [4]).
